Experiment [1] has as its system Redroot pigweed (AMARE), variant known to exhibit triazine tolerance. It counts as in vivo. The conditions noted are these: 13 days after application; for effect on tolerant plants (in words): rates of Table 1. An excerpt: (§1) The soil was a silty clay loam mixed with fertiliser (12-12-12) at the rate of 128 g fertiliser to 10 gallons of soil.
(§2) The tolerant seeds were planted 13 days earlier than the non-tolerant seeds in order to get the seedlings to a similar size by the time the herbicide was applied. The time difference in planting was based on earlier observations of germination speed. On application of the herbicides, the tolerant plants had reached the 6-9 leaf stage, and the non-tolerant plants the 5-leaf stage.
(§3) Herbicide solutions were made by dissolving the herbicide(s) in tap water containing 0.5% of a commercial surfactant, ‘Tween 20’. The solutions were applied at […] and 40 p.s.i pressure, using an 80015E nozzle. After spraying, the plants were placed in a glasshouse at 29/20° C. day/night temperature and 45/65% day/night relative humidity and a photoperiod of 14 hours.
(§4) The figures in the mesotrione and atrazine columns are g/ha of herbicide applied to the test pots. The figures in the subsequent columns are percentage damage observed 13 days after application of the relevant herbicide composition. The numbers range from 0 (no effect) to 100 (dead plants). The main area of focus for the present invention is the effect on tolerant plants, and the effect on non-tolerant plants was only measured for comparative purposes.

Experiment [2] relates to Redroot pigweed (AMARE), normal wild variety (non-tolerant). Put plainly: Glasshouse postemergence herbicide test, percentage damage on normal wild (non-tolerant) plants. It counts as in vivo. The conditions noted are these: rates of Table 1; 13 days after application.
Text: as §1, §2, §3, §4

On to `CS(=O)(=O)c1ccc(C(=O)C2C(=O)CCCC2=O)c([N+](=O)[O-])c1` [mesotrione], for which, in experiment [1] (0.90 g/ha mesotrione alone), the “damage level on tolerant plants” value was 2. Moreover, in experiment [1], the “effect on tolerant plants (in words)” value is given as “causes damage”. Further, the “effect on non-tolerant plants (in words)” value in experiment [2] was “causes damage”.
In the case of `CCNc1nc(Cl)nc(NC(C)C)n1` [Atrazine, atrazine], the “effect on tolerant plants (in words)” value in experiment [1] was “no effect at all”. For the same molecule, the “effect on non-tolerant plants (in words)” value in experiment [2] is “significantly damaging”.
